# Assays:
# NOX4 = target: T1, NOX4 (Homo sapiens, UniProt Q9NPH5); experiment: NOX4 HEK293 overexpression cell-based assay (Amplex Red H2O2); details: HEK293 cells stably overexpressing NOX4, DMSO = 0, GKT137831 = 100; for inhibition at 0.1 µM: HEK293, 100 nM; for inhibition at 1 µM: HEK293, 1000 nM
# T1 construct: expressed in transfected cells
# T1 sequence (Q9NPH5 1-578): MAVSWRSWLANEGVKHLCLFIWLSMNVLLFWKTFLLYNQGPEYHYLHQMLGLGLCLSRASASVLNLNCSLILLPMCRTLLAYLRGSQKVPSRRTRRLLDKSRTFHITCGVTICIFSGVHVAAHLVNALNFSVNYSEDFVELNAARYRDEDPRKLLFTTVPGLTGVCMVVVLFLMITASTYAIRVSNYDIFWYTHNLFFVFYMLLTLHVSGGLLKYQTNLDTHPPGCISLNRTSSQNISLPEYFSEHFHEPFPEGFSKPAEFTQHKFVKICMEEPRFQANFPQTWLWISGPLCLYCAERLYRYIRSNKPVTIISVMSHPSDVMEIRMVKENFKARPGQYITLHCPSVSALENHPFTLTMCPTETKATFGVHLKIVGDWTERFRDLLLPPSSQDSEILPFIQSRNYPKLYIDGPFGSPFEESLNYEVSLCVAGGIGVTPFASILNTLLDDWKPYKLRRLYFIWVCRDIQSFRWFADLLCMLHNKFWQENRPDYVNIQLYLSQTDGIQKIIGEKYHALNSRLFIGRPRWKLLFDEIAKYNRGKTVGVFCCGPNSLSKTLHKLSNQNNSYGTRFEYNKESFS
# T1 sequence (P13498 2-195 partner limits assumed): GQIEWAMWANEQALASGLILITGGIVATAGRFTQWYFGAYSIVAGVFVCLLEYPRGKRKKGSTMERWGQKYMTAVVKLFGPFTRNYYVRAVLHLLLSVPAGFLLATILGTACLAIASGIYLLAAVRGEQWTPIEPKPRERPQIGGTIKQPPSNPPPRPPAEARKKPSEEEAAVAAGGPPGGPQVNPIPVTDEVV
# Protocol: Extracellular H2O2 measurement using Amplex™ Red Hydrogen Peroxide/Peroxidase Assay Kit (Catalog number: A22188; Invitrogen, Carlsbad, Calif., USA) was used to detect extracellular H2O2 release by HEK293 cells stably overexpressing NOX4. NOX4 clonal cells in log-phase growth were trypsinized, washed, and dispersed thoroughly. Following trypsinization, the cells (3×10^4) were resuspended in 100 μL of 1× Krebs-Ringer phosphate glucose (KRPG) buffer containing various concentrations of GKT137831 or test compounds and incubated at 37° C. for 30 min. Cells were mixed with 100 μL of Amplex Red reagent solution containing 50 μM Amplex Red and 0.1 units/mL of HRP in KRPG buffer; each assay condition was evaluated induplicate. The samples were incubated at 37° C. for 90 mins in the dark, and then centrifuged at 2,500 g for 5 mins. The supernatants were loaded to a 96 well plate, and then measured using a SpectraMax i3 Multiplate reader (Molecular Devices, Sunnyvale, Calif., USA) at 530 nm excitation and 590 nm emission respectively. DMSO and GKT137831 wells were applied as negative and positive controls, and the activities measured were set to 0 and 100, respectively.
# NOX1 = target: T2, NOX1 (Homo sapiens, UniProt Q9Y5S8); experiment: NOX1 HT29 cell-based assay (luminol/HRP luminescence); details: HT29 cells, DMSO = 0%, GKT137831 = 100%; for inhibition at 0.1 µM / inhibition at 1 µM: HT-29
# T2 construct: endogenous in cells; host or cells: HT29
# T2 sequence (Q9Y5S8 1-564): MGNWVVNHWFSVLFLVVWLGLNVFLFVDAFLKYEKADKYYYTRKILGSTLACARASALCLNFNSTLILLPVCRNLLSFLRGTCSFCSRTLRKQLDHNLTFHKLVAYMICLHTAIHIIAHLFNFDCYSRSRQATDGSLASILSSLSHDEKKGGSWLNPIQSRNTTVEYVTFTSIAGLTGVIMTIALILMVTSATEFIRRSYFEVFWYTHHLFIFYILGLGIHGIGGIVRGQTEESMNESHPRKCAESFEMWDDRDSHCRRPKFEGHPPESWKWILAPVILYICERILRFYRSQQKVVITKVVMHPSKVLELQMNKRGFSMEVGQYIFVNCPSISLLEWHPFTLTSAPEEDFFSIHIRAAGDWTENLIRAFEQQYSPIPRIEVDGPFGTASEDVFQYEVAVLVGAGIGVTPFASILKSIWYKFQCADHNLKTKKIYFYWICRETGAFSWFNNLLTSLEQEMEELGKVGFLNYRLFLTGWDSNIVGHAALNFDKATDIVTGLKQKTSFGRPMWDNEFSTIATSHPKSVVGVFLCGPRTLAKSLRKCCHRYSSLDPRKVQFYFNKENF
# T2 sequence (P13498 2-195 partner limits assumed): T1 sequence (P13498 2-195 partner limits assumed)
# Protocol: NOX1 HT29 Cell-Based Assay:
# HT29 cells were cultured in T75 flask (Corning) and when 70-80% confluence was reached, cells were trypsinized, harvested in HBSS and counted. 1-2×10^5 cells were dispensed into individual wells in 70 μl final volume (96-well plates, white Corning). Cells were treated for 30-60 mins at 37° C. with 10 μl of GKT137831, DMSO and test compounds from their respective assay plates. This will correspond to a final concentration of 100 nM, 1000 nM GKT137831 or test compounds, and 0.1% DMSO. 20 μL of a mixture containing 100 μM luminol plus 0.4 units of HRP (final concentration) was added. Luminescence was quantified using a SpectraMax i3 Multiplate reader (Molecular Devices, Sunnyvale, Calif., USA). As designed, compounds that inhibit NOX1 activity will reduce cellular ROS production, leading to reduced probe-ROS interactions and reduced well luminescence. Compounds were tested in duplicate at a concentration of 100 nM and 1000 nM. DMSO and GKT137831 wells were applied as negative and positive controls, and the activities measured were set to 0% and 100%, respectively.
# NOX2 = target: T3, NOX2 (Homo sapiens, UniProt P04839); experiment: NOX2 HL60 cell-based assay (PMA oxidative burst, L012 chemiluminescence); details: DMSO-differentiated HL-60 cells, PMA-stimulated; for inhibition at 0.1 µM: HL-60, 100 nM; for inhibition at 1 µM: HL-60, 1000 nM
# T3 construct: HL-60 cells, rich in NOX2 expression; endogenous in cells; host or cells: DMSO-differentiated HL-60
# T3 sequence (P04839 2-570 limits assumed): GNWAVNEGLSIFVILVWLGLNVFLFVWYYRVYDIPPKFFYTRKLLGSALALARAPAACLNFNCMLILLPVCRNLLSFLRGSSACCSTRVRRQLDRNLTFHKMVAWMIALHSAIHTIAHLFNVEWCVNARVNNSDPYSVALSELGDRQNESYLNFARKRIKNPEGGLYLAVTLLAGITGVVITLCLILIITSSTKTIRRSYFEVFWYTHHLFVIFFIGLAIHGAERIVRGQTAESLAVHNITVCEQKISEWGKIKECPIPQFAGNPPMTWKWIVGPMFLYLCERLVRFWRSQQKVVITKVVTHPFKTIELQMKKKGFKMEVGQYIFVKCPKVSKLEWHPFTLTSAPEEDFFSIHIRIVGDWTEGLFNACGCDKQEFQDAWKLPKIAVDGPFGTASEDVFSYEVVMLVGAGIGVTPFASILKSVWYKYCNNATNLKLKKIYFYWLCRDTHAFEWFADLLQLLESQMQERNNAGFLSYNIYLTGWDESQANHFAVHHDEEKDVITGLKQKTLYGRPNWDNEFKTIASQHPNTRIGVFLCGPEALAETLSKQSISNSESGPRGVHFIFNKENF
# T3 sequence (P13498 2-195 partner limits assumed): T1 sequence (P13498 2-195 partner limits assumed)
# Protocol: NOX2 HL60 Cell-Based Assay:
# HL-60 cells, rich in NOX2 expression, was stimulated to undergo oxidative burst by phorbol myristate acetate (PMA). The ROS produced during this process was measured using the O2^−-specific chemiluminescent probe L012. L012 was added to DMSO-differentiated HL-60 cell suspensions to a final concentration of 100 μM. Then, 80 μL aliquots of cell suspension (2.5×10^5 cells) were transferred to individual wells of a 96-well plate. Test compounds were directly added to the wells at the specified concentrations. Following a 30-60 mins incubation at 37° C. in the dark, the oxidative burst was initiated by the addition of 10 ng/mL PMA, and the chemiluminescence signal was recorded every 5 min over a period of 60 mins in a SpectraMax i3 Multiplate reader (Molecular Devices, Sunnyvale, Calif., USA). • NOX4 HEK293 Overexpression Cell-Based Assay: […]
inhibition at 0.1 µM (NOX1; 100 nM),inhibition at 1 µM (NOX1; 1000 nM),inhibition at 0.1 µM (NOX2),inhibition at 0.1 µM (NOX4),inhibition at 1 µM (NOX4),inhibition at 1 µM (NOX2),SMILES,% Inhibition NOX4 (NOX4; 100 nM),"% Inhibition NOX4 (NOX4; 1000 nM, 1 µM)","% Inhibition NOX2 (NOX2; 1000 nM, 1 µM)",% Inhibition NOX2 (NOX2; 100 nM),% Inhibition NOX4 (NOX4; 1000 nM),% Inhibition NOX1 (NOX1; 100 nM),% Inhibition NOX1 (NOX1; 1000 nM),% Inhibition NOX2 (NOX2; 1000 nM),"% Inhibition NOX2 (NOX2; 100 nM, acetate, 0.1 µM)","% Inhibition NOX2 (NOX2; 1000 nM, acetate, 1 µM)"
≥ 80%,≥ 80%,50 to 79%,,,,COc1cc2[nH]c(-c3ccccc3OC(F)(F)F)c(O)c(=O)c2cc1OC [Compound 20],C (the percent of inhibition of NOX by the compounds ranges from 2000 to 49%),B (the percent of inhibition of NOX by the compounds ranges from 50% o to 79% o),A (the percent of inhibition of NOX by the compounds is larger than or equals to 80%),,,,,,,
≤ 19%,≥ 80%,≤ 19%,≤ 19%,≤ 19%,≤ 19%,COc1cc2[nH]c(C(C)(C)C)c(O)c(=O)c2cc1OC [Compound 14],,,,,,,,,,
≤ 19%,≥ 80%,≤ 19%,≤ 19%,≥ 80%,≤ 19%,COc1cc2[nH]c(-c3ccc(C(F)(F)F)cc3)c(O)c(=O)c2cc1OC [Compound 12],,,,,,,,,,
≥ 80%,≥ 80%,,,50 to 79%,50 to 79%,COc1cc2[nH]c(-c3ccccc3F)c(O)c(=O)c2cc1OC [Compound 18],C (the percent of inhibition of NOX by the compounds ranges from 2000 to 49%),,,C (the percent of inhibition of NOX by the compounds ranges from 2000 to 49%),,,,,,
,,≤ 19%,,,,COc1cc2[nH]c(-c3ccc(Cl)cc3Cl)c(O)c(=O)c2cc1OC [Compound 49],C (the percent of inhibition of NOX by the compounds ranges from 2000 to 49%),,,,B (the percent of inhibition of NOX by the compounds ranges from 50% o to 79% o),A (the percent of inhibition of NOX by the compounds is larger than or equals to 80%),A (the percent of inhibition of NOX by the compounds is larger than or equals to 80%),A (the percent of inhibition of NOX by the compounds is larger than or equals to 80%),,
,,,,,,COc1cc2[nH]c(-c3ccccc3OC(F)(F)F)c(O)c(=O)c2cc1OC.Cl [Compound 52],C (the percent of inhibition of NOX by the compounds ranges from 2000 to 49%),,,C (the percent of inhibition of NOX by the compounds ranges from 2000 to 49%),B (the percent of inhibition of NOX by the compounds ranges from 50% o to 79% o),A (the percent of inhibition of NOX by the compounds is larger than or equals to 80%),A (the percent of inhibition of NOX by the compounds is larger than or equals to 80%),B (the percent of inhibition of NOX by the compounds ranges from 50% o to 79% o),,
,,,,,,"COc1cc2[nH]c(-c3ccccc3C(F)(F)F)c(O)c(=O)c2cc1OC [Compound 43, 3-hydroxy-6,7-dimethoxy-2-(2-(trifluoromethyl)phenyl)quinolin-4(1H)-one acetate]",B (the percent of inhibition of NOX by the compounds ranges from 50% o to 79% o),,,,B (the percent of inhibition of NOX by the compounds ranges from 50% o to 79% o),A (the percent of inhibition of NOX by the compounds is larger than or equals to 80%),A (the percent of inhibition of NOX by the compounds is larger than or equals to 80%),,B (the percent of inhibition of NOX by the compounds ranges from 50% o to 79% o),A (the percent of inhibition of NOX by the compounds is larger than or equals to 80%)
≥ 80%,≥ 80%,≤ 19%,,≥ 80%,≥ 80%,COc1cc2[nH]c(-c3ccc(F)cc3)c(O)c(=O)c2cc1OC [Compound 13],C (the percent of inhibition of NOX by the compounds ranges from 2000 to 49%),,,,,,,,,

# — patent US11661400B2, “NADPH oxidase inhibitors, pharmaceutical composition comprising the same, and application thereof” (TAIWANJ PHARMACEUTICALS CO., LTD., priority 2018, dated 2023)
